According to the NIST ThermoML archive (doi:10.1021/je900478c):

Test: xn = mol fraction of the nth substance listed
Conditions: 101 kPa, Liquid; for viscosity: Capillary tube (Ostwald / Ubbelohde) method; for mass density: Vibrating tube method

CCCCOCCOCCO [3,6-dioxa-1-decanol] + O
Conditions | mass density, 283.15 K [kg/m3] | mass density, 293.15 K [kg/m3] | mass density, 303.15 K [kg/m3] | mass density, 313.15 K [kg/m3] | mass density, 323.15 K [kg/m3] | viscosity, 283.15 K [mPa·s] | viscosity, 293.15 K [mPa·s] | viscosity, 303.15 K [mPa·s] | viscosity, 313.15 K [mPa·s] | viscosity, 323.15 K [mPa·s]
x1 = 0.00199 | 1000.2 | 998.59 | 995.87 | 992.68 | – | – | – | – | – | –
x1 = 0.003 | 1000.41 | 998.79 | 996.01 | 992.86 | – | – | – | – | – | –
x1 = 0.00498 | 1001.05 | 999.2 | 996.31 | 993.28 | – | – | – | – | – | –
x1 = 0.00617 | 1001.43 | 999.48 | 996.53 | 993.43 | – | – | – | – | – | –
x1 = 0.00706 | 1001.75 | 999.68 | 996.67 | 993.51 | – | – | – | – | – | –
x1 = 0.00794 | 1002 | 999.88 | 996.81 | 993.62 | – | – | – | – | – | –
x1 = 0.00892 | 1002.32 | 1000.11 | 996.95 | 993.66 | – | – | – | – | – | –
x1 = 0.00993 | 1002.65 | 1000.34 | 997.07 | 993.71 | – | – | – | – | – | –
x1 = 0.01492 | 1004.27 | 1001.44 | 997.66 | 993.62 | – | – | – | – | – | –
x1 = 0.02056 | 1005.74 | 1002.03 | 997.51 | 993.05 | – | – | – | – | – | –
x1 = 0.0238 | 1006.36 | 1002.2 | 997.18 | 992.61 | – | – | – | – | – | –
x1 = 0.02697 | 1006.66 | 1002.11 | 997 | 992.19 | – | – | – | – | – | –
x1 = 0.03015 | 1006.78 | 1001.94 | 996.61 | 991.64 | – | – | – | – | – | –
x1 = 0.03953 | 1006.53 | 1001.04 | 995.23 | 989.79 | – | – | – | – | – | –
x1 = 0.06038 | 1005.13 | 998.81 | 992.28 | 986.16 | – | – | – | – | – | –
x1 = 0.07987 | 1003.42 | 996.64 | 989.68 | 983.24 | – | – | – | – | – | –
x1 = 0.1 | 1001.67 | 994.55 | 987.21 | 979.73 | 971.95 | 8.644 | 5.684 | 3.974 | 2.914 | 2.216
x1 = 0.2 | 992.63 | 984.71 | 976.63 | 968.47 | 960.1 | 12.36 | 7.986 | 5.482 | 3.942 | 2.943
x1 = 0.2999 | 985.44 | 977.27 | 968.97 | 960.58 | 951.9 | 13.32 | 8.637 | 5.93 | 4.259 | 3.173
x1 = 0.4 | 979.51 | 971.27 | 962.91 | 954.51 | 945.89 | 13.06 | 8.55 | 5.913 | 4.27 | 3.195
x1 = 0.5 | 974.9 | 966.63 | 958.27 | 949.82 | 941.29 | 12.36 | 8.183 | 5.713 | 4.161 | 3.133
x1 = 0.6 | 971.46 | 963.17 | 954.74 | 946.32 | 937.75 | 11.49 | 7.708 | 5.442 | 3.998 | 3.033
x1 = 0.7 | 968.77 | 960.45 | 952.05 | 943.62 | 935.03 | 10.58 | 7.203 | 5.144 | 3.816 | 2.918
x1 = 0.7998 | 966.62 | 958.25 | 949.8 | 941.34 | 932.8 | 9.748 | 6.727 | 4.857 | 3.638 | 2.804
x1 = 0.8999 | 964.58 | 956.18 | 947.72 | 939.34 | 930.8 | 9.038 | 6.309 | 4.601 | 3.474 | 2.697
x1 = 1 | 962.57 | 954.16 | 945.74 | 937.35 | 928.85 | 8.301 | 5.86 | 4.323 | 3.295 | 2.58
